Patent US5541187A, “6-heterocycyclyl pyrazolo[3,4-d]pyrimidin-4-ones and compositions and method of use thereof” (Sterling Winthrop Inc., priority 1993, dated 1996)
Values joined by “and” are separate entries in the source; they are usually repeats but may differ in a detail not shown here. Identical values can stand only once.

Key:
[1] = test system: cGMP-PDE I; experiment: cGMP-PDE I inhibitory activity (cyclic nucleotide hydrolysis, isolated PDE isozyme); assay type: biochemical, various animal species and man; conditions: for IC50: values marked * are from two separate experimental runs
Method: Multiple isozymic forms of cyclic nucleotide phosphodiesterase (PDE) have been identified in mammalian cells. […] Elevation of intracellular cGMP in vascular smooth muscle triggers a cascade of events that leads to a reduction in muscle tone while elevations in renal tubule cell cGMP stimulates natriuresis and diuresis. Vascular smooth muscle and renal cells contain a phosphodiesterase isozyme that has a low Km (1 μM) for the hydrolysis of cGMP. This isozyme has been referred to as the cGMP-PDE or cGMP-PDE I since it elutes from an anion-exchange sepharose resin in the first peak of PDE activity at a sodium acetate concentration between 150-200 mM. Thus inhibition of the cGMP-PDE isozyme is a viable subcellular mechanism by which increases in cGMP can produce a reduction in total peripheral resistance and a stimulation of natriuresis and diuresis. The development of cGMP-PDE inhibitors represents an approach for the discovery of agents useful for treating heart failure and hypertension. For example, compounds having high inhibitory potency for the cGMP-PDE are expected to lower blood pressure and induce natriuresis and diuresis.
The cGMP-PDE and other PDE isozymes were isolated from cardiovascular tissues (heart and aorta) of various animal species and man by anion-exchange and affinity chromatography as described by Silver et al., Sec. Messeng. Phos. 13:13-25, 1991; PDE activity, in the presence and absence of test compounds was determined essentially as described by Thompson et al., Adv. Cyclic Nucleotide Res. 10:69-92. To determine the potency and selectivity of compounds as PDE inhibitors, compounds are screened for their effect on cyclic nucleotide hydrolysis at 10 μM. If ≥50% inhibition of PDE activity is observed, an IC50 value (concentration of compound causing 50% reduction in PDE activity) and corresponding 95% confidence intervals are generated. The IC50 values are calculated from concentration-response curves as described by Tallarida and Murray, Manual of Pharmacologic Calculations with Computer Programs, Procedure 8, Graded Dose-response, pp. 14-19, Springer-Verlag, N.Y., 1981.

[2] = test system: Spontaneously hypertensive rats (SHR); experiment: Antihypertensive activity in conscious spontaneously hypertensive rats (SHR), iv; assay type: in vivo; conditions: Rattus norvegicus, 5 min; for change in vivo at 10 mg/kg / change in vivo at 1 mg/kg / change in vivo at 3 mg/kg: 5 minutes after dose, cumulative dosing, read-out: % change in mean arterial pressure; for ED25: read-out: ED25 (mean arterial pressure)
Method: After a 2 day recovery from surgery, three baseline blood pressure measurements were made at 5 min intervals in conscious SHR. Compounds to be tested or vehicle were then administered intravenously in a dose-dependent manner (0.3-10 mg base/kg) while arterial pressure was recorded continuously on a polygraph. The mean arterial pressure response was measured 5 minutes after the administration of each dose of the test compound and the next dose given in a cumulative dose fashion. The response to each dose of the test compound was calculated as the difference from the mean of the three baseline measurements.

[3] = test system: Spontaneously hypertensive rats; experiment: Procedure 2: in vivo reversal of nitroglycerin tolerance, mean arterial pressure; parameters: species or system rat (spontaneously hypertensive rats)
Method: Spontaneously hypertensive rats (16-19 weeks of age) were made nitroglycerin tolerant by injecting […] nitroglycerin s.c., 3-times/day for 3 days. While conscious and freely moving, the decrease in mean arterial pressure (MAP) in response to a challenge dose of nitroglycerin (10 μg/kg, i.v. bolus) was utilized to confirm tolerance.

Row | IC50 [1] | SMILES | Percent Inhibition cGMP-PDE I ([1]; 0.01 μM) | ED25 [2] | Percent Inhibition cGMP-PDE I ([1]; 0.1 μM) | Percent Inhibition cGMP-PDE I ([1]; 1 μM) | other results
1 | 6 nM | COc1ccc(Cc2[nH]n(C(C)(C)C)c3nc(-c4ccncc4)nc(=O)c2-3)cc1OC [Example 4e, 1-tert-Butyl-3-(3,4-dimethoxybenzyl)-6-(4-pyridyl) pyrazolo[3,4-d]pyrimidin-4-one] | 69% |  |  |  | change in vivo at 10 mg/kg [2]: -2%
2 | 450 nM and 370 nM | CCc1nn(C2CCCC2)c2nc(-c3ccncc3)[nH]c(=O)c12 [Example 75] |  | 1.7 mg/kg |  |  | 
3 | 370 nM | Cc1nn(C2CCCC2)c2nc(-c3ccncc3)[nH]c(=O)c12 [Example 83] |  | 1 mg/kg |  |  | change in MAP at threshold dose of the compound ([3]; 1 mg/kg, i.v., threshold dose): approximately 10 mmHg; change in MAP in response to nitroglycerin injection after pretreatment with the compound ([3]; nitroglycerin tolerant rats (n=12), compound 1 mg/kg i.v., then nitroglycerin 10 μg/kg): -35 mmHg
4 | 380 nM | Cc1nn(C(C)(C)C)c2nc(-c3ccncc3)[nH]c(=O)c12 [Example 93] |  | 6.5 mg/kg |  |  | 
5 | 560 nM | Cc1nn(C2CCCC2)c2nc(-c3cccnc3)[nH]c(=O)c12 [Example 98] |  | 4.1 mg/kg |  |  | 
6 | 1.6 nM | CCOc1cnccc1-c1nc2n(C3CCCC3)[nH]c(CC)c-2c(=O)n1 [Example 119d, 1-Cyclopentyl-3-ethyl-6-(3-ethoxy-4-pyridyl)pyrazolo[3,4-d]pyrimidin-4-one] |  | 4.8 mg/kg | 90% |  | change in vivo at 3 mg/kg [2]: -24%; change in vivo at 10 mg/kg [2]: -36%
7 | 240 nM | CCc1[nH]n(C2CCCC2)c2nc(-c3ccnc(-n4ccnc4)c3)nc(=O)c1-2 [Example 121c, 1-Cyclopentyl-3-ethyl-6-[2-(1-imidazolyl)-4-pyridyl]pyrazolo[3,4-d]pyrimidin-4-one] |  |  | 11% | 68% | 
8 | 120 nM | CC(C)(C)n1[nH]c(Cc2ccncc2)c2c(=O)nc(-c3ccncc3)nc1-2 [Example 123d, 1-tert-butyl-3-(4-pyridylmethyl)-6-(4-pyridyl)-pyrazolo[3,4-d]pyrimidin-4-one] |  |  | 55% | 90% | change in vivo at 10 mg/kg [2]: -7%
9 | 150 nM | CCc1nn(C2CCCC2)c2nc(-c3ccnc(OCCN4CCOCC4)c3)[nH]c(=O)c12 [Example 124c, hydrate] | 19% | 10.1 mg/kg | 50% | 86% | change in vivo at 3 mg/kg [2]: -14%; change in vivo at 10 mg/kg [2]: -24%
10 | 580 nM | CCc1[nH]n(C2CCCC2)c2nc(-c3ccnc(Cl)c3)nc(=O)c1-2 [Example 125b, 1-Cyclopentyl-3-ethyl-6-(2-chloro-4-pyridyl)pyrazolo[3,4-d]pyrimidin-4-one] |  |  | 27% | 59% | 
11 | 1.8 nM and 2.5 nM | CCOc1cnccc1-c1nc2n(C3CCCC3)[nH]c(C(F)(F)F)c-2c(=O)n1 [Example 127c, 1-Cyclopentyl-3-trifluoromethyl-6-(3-ethoxy-4-pyridyl)pyrazolo[3,4-d]pyrimidin-4-one] | 79% |  | 93% |  | change in vivo at 10 mg/kg [2]: -14%
12 | 36 nM | CCc1[nH]n(C2CCCC2)c2nc(-c3ccncc3OC)nc(=O)c1-2 [Example 128c, 1-Cyclopentyl-3-ethyl-6-(3-methoxy-4-pyridyl)pyrazolo[3,4-d]pyrimidin-4-one] | 54% | 0.23 mg/kg | 71% |  | change in vivo at 10 mg/kg [2]: -48%

Further lines, the compound ahead of its results:

Row | SMILES | IC50 [1] | Percent Inhibition cGMP-PDE I ([1]; 0.01 μM) | ED25 [2] | Percent Inhibition cGMP-PDE I ([1]; 0.1 μM) | Percent Inhibition cGMP-PDE I ([1]; 1 μM) | other results
13 | Cc1[nH]n(C2CCCC2)c2nc(-c3ccnc4ccccc34)nc(=O)c1-2 [Example 13b, 1-Cyclopentyl-3-methyl-6-(4-quinolinyl)-pyrazolo [3,4-d]-pyrimidin-4-one] | 97 nM |  |  |  |  | change in vivo at 1 mg/kg [2]: -17%; change in vivo at 3 mg/kg [2]: -14%
14 | Cc1[nH]n(C2CCCC2)c2nc(-c3ccc4ncccc4c3)nc(=O)c1-2 [Example 14c, 1-Cyclopentyl-3-methyl-6-(6-quinolinyl)-pyrazolo [3,4-d]-pyrimidin-4-one] | 780 nM |  | 7.8 mg/kg |  |  | 
15 | CC(C)(C)n1nc(Cc2ccccc2)c2c(=O)[nH]c(-c3ccncc3)nc21 [Example 90] |  |  |  |  |  | change in vivo at 1 mg/kg [2]: -6%
16 | CCc1[nH]n(C2CCCC2)c2nc(-n3ccnc3)nc(=O)c1-2 [Example 122d, 1-Cyclopentyl-3-ethyl-6-(1-imidazolyl)pyrazolo[3,4-d]pyrimidin-4-one] |  |  |  |  | 16% | Percent Inhibition cGMP-PDE I ([1]; 10 μM): 46%
17 | Cc1[nH]n(C2CCCC2)c2nc(-c3cc[nH]c(=O)c3)nc(=O)c1-2 [Example 126b, 1-Cyclopentyl-3-methyl-6-(2-oxo-4-pyridyl)pyrazolo[3,4-d]pyrimidin-4-one] |  |  |  | 0% | 32% | 
18 | CCc1[nH]n(C2CCCC2)c2nc(-c3ccnc(N4CCOCC4)c3)nc(=O)c1-2 [Example 129c, 1-Cyclopentyl-3-ethyl-6-(2-(4-morpholinyl)-4-pyridyl)pyrazolo[3,4-d]pyrimidin-4-one] |  |  |  | 35% | 64% | 
19 | CCc1[nH]n(C2CCCC2)c2nc(-c3ccncc3OC3CCC3)nc(=O)c1-2 [Example 130B, 1-Cyclopentyl-3-ethyl-6-(3-cyclobutyloxy-4-pyridyl)pyrazolo[3,4-d]pyrimidin-4-one] |  | 91% |  |  |  | 
20 | CCc1[nH]n(C2CCCC2)c2nc(-c3ccncc3OCCOC)nc(=O)c1-2 [Example 131b, 1-Cyclopentyl-3-ethyl-6-(3-(2-methoxyethoxy)-4-pyridyl)pyrazolo[3,4-d]pyrimidin-4-one] |  | 22% |  | 61% | 86% | 
21 | CCc1[nH]n(C2CCCC2)c2nc(-c3ccncc3OC(C)CC)nc(=O)c1-2 (stereo not drawn) [Example 132b, 1-Cyclopentyl-3-ethyl-6-(3-sec-butoxy-4-pyridyl)pyrazolo[3,4-d]pyrimidin-4-one] |  | 90% |  |  |  | change in vivo at 1 mg/kg [2]: -9%; change in vivo at 3 mg/kg [2]: -8%; change in vivo at 10 mg/kg [2]: -12%
22 | CCCOc1cnccc1-c1nc2n(C3CCCC3)[nH]c(CC)c-2c(=O)n1 [Example 133c, 1-Cyclopentyl-3-ethyl-6-(3-propoxy-4-pyridyl)pyrazolo[3,4-d]pyrimidin-4-one] |  | 82% |  |  |  | 
23 | COc1cnccc1-c1nc2n(C(C)(C)C)[nH]c(Cc3ccncc3)c-2c(=O)n1 [Example 134b, 1-tert-Butyl-3-(4-pyridylmethyl)-6-(3-methoxy-4-pyridyl)pyrazolo[3,4-d]pyrimidin-4-one] |  | 35% |  | 55% |  | 
24 | COc1cnccc1-c1nc2n(C3CCCC3)[nH]c(C(F)(F)F)c-2c(=O)n1 [Example 135, 1-Cyclopentyl-3-trifluoromethyl-6-(3-methoxy-4-pyridyl)pyrazolo[3,4-d]pyrimidin-4-one] |  | 36% |  | 68% | 88% | 
25 | CCc1[nH]n(C(C)(C)C)c2nc(-c3ccncc3OC)nc(=O)c1-2 [Example 136, 1-tert-Butyl-3-ethyl-6-(3-methoxy-4-pyridyl)pyrazolo[3,4-d]pyrimidin-4-one] |  | 28% |  | 39% | 73% | 
26 | CCc1[nH]n(C2CCCC2)c2nc(-c3cccnc3)nc(=O)c1-2 [Example 137, 1-Cyclopentyl-3-ethyl-6-(3-pyridyl)pyrazolo[3,4-d]pyrimidin-4-one] |  |  |  | 27% | 64% | 
